# Measurements reported in patent publication US6703382B2, “Small molecule inhibitors targeted at Bcl-2” (Georgetown University Medical Center, priority 2000, dated 2004).
# Assays:
# MDA-231 cells [1] = experiment: Annexin-V FACS apoptosis assay, MDA-231; format: cell-based, human; settings: 24 hours
# Method: (§1) The Annexin-V FACS assay yields a more quantitative assessment of the ability of Formula II to induce of apoptosis in HL-60 and MDA-231 cells. MDA-231 cells treated with 0 (untreated), 4 and 10 μM of Formula II for 24 hours provide 0, 13% and 20.0% apoptotic cells, respectively, while HL-60 cells treated with 0, 5, 10, and 20 μM of Formula II for 24 hours provide 0, 24%, 31% and 67% of apoptotic cells, respectively (FIG. 3). Therefore, Formula II induces apoptosis in a highly dose-dependent manner in MDA-231 and HL-60 cell lines with Bcl-2 protein overexpression.
# HL-60 cells [2] = experiment: Trypan-blue exclusion cell survival assay, HL-60; format: cell-based; settings: Homo sapiens; HL-60, trypan-blue exclusion; read-out: cell killing IC50
# Method: (§2) FIG. 3. Illustrated the effects of the compound of formula II on cell viability. Cells are plated in 24-well plates, incubated with said compound at appropriate concentrations for 14 hr. Cell viability is determined by trypan blue exclusion with hemocytometer. Percent of viable cells, as compared with untreated cells, is plotted against drug concentration.
# (§3) The ability of Formula II to inhibit cell viability is highly specific and correlates well with the Bcl-2 protein expression level in these cancer cells.
# HL-60 cells [3] = experiment: Hoechst Dye apoptosis assay, HL-60; format: cell-based, human; settings: 10 μM, 12 hours, HL-60, high Bcl-2 expression
# From the text: (§4) Bcl-2 protein expression in human breast and other cancer cell line is characterized herein. Cell lines MCF-7, MDA-231 and MDA-361 express high levels of Bcl-2; MDA-468, BT474 and MDA-435 express median levels. […] Human myeloid leukemia cell HL-60 expresses the highest level of Bcl-2 protein among all the cell lines examined. Accordingly, MDA-231 and HL-60 cell lines with high Bcl-2 expression are positive cells and MDA-453 and T47D are negative control cells. The level of Bcl-2 protein expression is detected by Western blotting.
# (§5) Using a Hoechst Dye assay, cells are treated at different doses for 12 hours and apoptotic cells are visually identified and counted under the microscope. Induction of apoptosis is evident after the treatment with Formula II at 10 μM in MDA-453 or T 47D cell lines, cells with low Bcl-2 expression.
# [4] = target: Bcl-2 (GST-fused soluble protein) / Flu-Bak-BH3 peptide (Homo sapiens, UniProt P10415); settings: competitive FP assay, FIG. 1
# Bcl-2 (GST-fused soluble protein) / Flu-Bak-BH3 peptide, sequence (P10415 1-205 limits assumed): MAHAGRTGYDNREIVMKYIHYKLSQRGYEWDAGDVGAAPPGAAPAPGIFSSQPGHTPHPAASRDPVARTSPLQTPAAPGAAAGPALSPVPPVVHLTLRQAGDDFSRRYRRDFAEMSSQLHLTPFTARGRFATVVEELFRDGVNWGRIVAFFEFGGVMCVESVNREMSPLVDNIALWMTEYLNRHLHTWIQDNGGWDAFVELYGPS
# MDA-231 cells [5] = experiment: Trypan-blue exclusion cell survival assay, MDA-231; format: cell-based; settings: Homo sapiens, MDA-MB-231; MDA-231, trypan-blue exclusion; read-out: cell killing IC50
# Method: as §2, §3
# HL-60 cells [6] = experiment: Annexin-V FACS apoptosis assay, HL-60; format: cell-based, human; settings: 24 hours
# Method: as §1
# MDA-231 cells [7] = experiment: Hoechst Dye apoptosis assay, MDA-231; format: cell-based, human; settings: 10 μM, 12 hours, MDA-231, high Bcl-2 expression
# From the text: as §4, §5
# T 47D cells = experiment: Hoechst Dye apoptosis assay, T47D; format: cell-based, human; settings: 10 μM, 12 hours, low Bcl-2 expression
# From the text: as §4, §5
# MDA-453 cells = experiment: Hoechst Dye apoptosis assay, MDA-453; format: cell-based, human; settings: 10 μM, 12 hours, MDA-453, low Bcl-2 expression
# From the text: as §4, §5
structure (smiles),measurement,setting,value
"COc1ccc2c(c1)CCc1cc(OC)ccc1[N+]([O-])=[N+]2[O-] [Formula II, 2,9-dimethoxy-11,12-dihydrodibenzo[c,g][1,2] diazocine-5,6-dioxide]",apoptotic cells,"MDA-231 cells [1]; MDA-231, 4 μM",13%
same,apoptotic cells,"MDA-231 cells [1]; MDA-231, 10 μM",20.0%
same,IC50,HL-60 cells [2],12 µM
same,induction of apoptosis,HL-60 cells [3],significant apoptosis
same,inhibition of the binding of the Bak-BH3 peptide to Bcl-2 in vitro,[4],inhibits the binding
same,IC50,MDA-231 cells [5],15 µM
same,apoptotic cells,"HL-60 cells [6]; HL-60, 5 μM",24%
same,apoptotic cells,"HL-60 cells [6]; HL-60, 10 μM",31%
same,apoptotic cells,"HL-60 cells [6]; HL-60, 20 μM",67%
same,induction of apoptosis,MDA-231 cells [7],significant apoptosis
same,induction of apoptosis,T 47D cells,evident
same,induction of apoptosis,MDA-453 cells,evident
